Laboratory results reported in US20230017045A1, “PYRIDINE AND PYRIMIDINE CARBOXYLATE HERBICIDES AND METHODS OF USE THEREOF” (Dow AgroSciences LLC, priority 2017, published 2023).

System: test plant species
Test: Post-emergent herbicidal activity test (greenhouse, foliar spray, visual growth reduction)
Format: in vivo
Settings: post-emergence, 336 h, ECHCG: barnyardgrass (Echinochloa crus-galli), 140 g ai/ha, 14 days after application, read-out: Visual Growth Reduction (%) 14 Days After Application, ECHCG
How it was run: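 Seedlings were raised 7-21 d in a greenhouse under a 15 h photoperiod until the first or second true leaf. Each compound, dissolved in acetone:DMSO 97:3 and diluted into a surfactant-containing spray mixture, was then applied at 187 L/ha. Plants were subirrigated, and growth reduction was scored visually at 14 d.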

Structure (SMILES)	pest or weed control at 140 g/ha
COC(=O)c1nc(-c2ccc3ncoc3c2)ccc1Cl [F262, Methyl 6-(benzo[d]oxazol-6-yl)-3-chloropicolinate]	0 to 29%
COc1nc(C(F)(F)F)ccc1-c1nc(C(=O)O)c(Cl)cc1F [F347, 5-Chloro-3-fluoro-2′-methoxy-6′-(trifluoromethyl)-[2,3′-bipyridine]-6-carboxylic acid]	85 to 94%
COC(=O)c1nc(-c2cc(C)c(C(F)(F)F)cc2F)ccc1Cl [F361, Methyl 3-chloro-6-(2-fluoro-5-methyl-4-(trifluoromethyl)phenyl)picolinate]	0 to 29%

Same assay, conditions: post-emergence, 336 h, IPOHE: ivy-leaf morning glory (Ipomoea hederacea), 140 g ai/ha, 14 days after application, read-out: Visual Growth Reduction (%) 14 Days After Application, IPOHE

Structure (SMILES)	pest or weed control at 140 g/ha
COC(=O)c1nc(-c2ccc3ncoc3c2)ccc1Cl [F262, Methyl 6-(benzo[d]oxazol-6-yl)-3-chloropicolinate]	30 to 44%
COc1nc(C(F)(F)F)ccc1-c1nc(C(=O)O)c(Cl)cc1F [F347, 5-Chloro-3-fluoro-2′-methoxy-6′-(trifluoromethyl)-[2,3′-bipyridine]-6-carboxylic acid]	95 to 100%
COC(=O)c1nc(-c2cc(C)c(C(F)(F)F)cc2F)ccc1Cl [F361, Methyl 3-chloro-6-(2-fluoro-5-methyl-4-(trifluoromethyl)phenyl)picolinate]	75 to 84%

Same assay, conditions: post-emergence, 336 h, KCHSC: kochia (Bassia scoparia), 140 g ai/ha, 14 days after application, read-out: Visual Growth Reduction (%) 14 Days After Application, KCHSC

Structure (SMILES)	pest or weed control at 140 g/ha
COC(=O)c1nc(-c2ccc3ncoc3c2)ccc1Cl [F262, Methyl 6-(benzo[d]oxazol-6-yl)-3-chloropicolinate]	0 to 29%
COc1nc(C(F)(F)F)ccc1-c1nc(C(=O)O)c(Cl)cc1F [F347, 5-Chloro-3-fluoro-2′-methoxy-6′-(trifluoromethyl)-[2,3′-bipyridine]-6-carboxylic acid]	85 to 94%
COC(=O)c1nc(-c2cc(C)c(C(F)(F)F)cc2F)ccc1Cl [F361, Methyl 3-chloro-6-(2-fluoro-5-methyl-4-(trifluoromethyl)phenyl)picolinate]	0 to 29%

Same assay, conditions: post-emergence, 336 h, ORYSA: rice (Oryza sativa), 140 g ai/ha, 14 days after application, read-out: Visual Growth Reduction (%) 14 Days After Application, ORYSA

Structure (SMILES)	pest or weed control at 140 g/ha
COC(=O)c1nc(-c2ccc3ncoc3c2)ccc1Cl [F262, Methyl 6-(benzo[d]oxazol-6-yl)-3-chloropicolinate]	0 to 29%
COc1nc(C(F)(F)F)ccc1-c1nc(C(=O)O)c(Cl)cc1F [F347, 5-Chloro-3-fluoro-2′-methoxy-6′-(trifluoromethyl)-[2,3′-bipyridine]-6-carboxylic acid]	30 to 44%
COC(=O)c1nc(-c2cc(C)c(C(F)(F)F)cc2F)ccc1Cl [F361, Methyl 3-chloro-6-(2-fluoro-5-methyl-4-(trifluoromethyl)phenyl)picolinate]	0 to 29%

Same assay, conditions: post-emergence, 336 h, SETFA: giant foxtail (Setaria faberi), 140 g ai/ha, 14 days after application, read-out: Visual Growth Reduction (%) 14 Days After Application, SETFA

Structure (SMILES)	pest or weed control at 140 g/ha
COC(=O)c1nc(-c2ccc3ncoc3c2)ccc1Cl [F262, Methyl 6-(benzo[d]oxazol-6-yl)-3-chloropicolinate]	0 to 29%
COc1nc(C(F)(F)F)ccc1-c1nc(C(=O)O)c(Cl)cc1F [F347, 5-Chloro-3-fluoro-2′-methoxy-6′-(trifluoromethyl)-[2,3′-bipyridine]-6-carboxylic acid]	85 to 94%
COC(=O)c1nc(-c2cc(C)c(C(F)(F)F)cc2F)ccc1Cl [F361, Methyl 3-chloro-6-(2-fluoro-5-methyl-4-(trifluoromethyl)phenyl)picolinate]	0 to 29%

Same assay, conditions: post-emergence, 336 h, SORVU: grain sorghum (Sorghum vulgare), 140 g ai/ha, 14 days after application, read-out: Visual Growth Reduction (%) 14 Days After Application, SORVU

Structure (SMILES)	pest or weed control at 140 g/ha
COC(=O)c1nc(-c2ccc3ncoc3c2)ccc1Cl [F262, Methyl 6-(benzo[d]oxazol-6-yl)-3-chloropicolinate]	0 to 29%
COc1nc(C(F)(F)F)ccc1-c1nc(C(=O)O)c(Cl)cc1F [F347, 5-Chloro-3-fluoro-2′-methoxy-6′-(trifluoromethyl)-[2,3′-bipyridine]-6-carboxylic acid]	85 to 94%
COC(=O)c1nc(-c2cc(C)c(C(F)(F)F)cc2F)ccc1Cl [F361, Methyl 3-chloro-6-(2-fluoro-5-methyl-4-(trifluoromethyl)phenyl)picolinate]	0 to 29%

Same assay, conditions: post-emergence, 336 h, STEME: common chickweed (Stellaria media), 140 g ai/ha, 14 days after application, read-out: Visual Growth Reduction (%) 14 Days After Application, STEME

Structure (SMILES)	pest or weed control at 140 g/ha
COC(=O)c1nc(-c2ccc3ncoc3c2)ccc1Cl [F262, Methyl 6-(benzo[d]oxazol-6-yl)-3-chloropicolinate]	0 to 29%
COc1nc(C(F)(F)F)ccc1-c1nc(C(=O)O)c(Cl)cc1F [F347, 5-Chloro-3-fluoro-2′-methoxy-6′-(trifluoromethyl)-[2,3′-bipyridine]-6-carboxylic acid]	0 to 29%
COC(=O)c1nc(-c2cc(C)c(C(F)(F)F)cc2F)ccc1Cl [F361, Methyl 3-chloro-6-(2-fluoro-5-methyl-4-(trifluoromethyl)phenyl)picolinate]	0 to 29%

Same assay, conditions: post-emergence, 336 h, TRZAS: wheat, spring (Triticum aestivum), 140 g ai/ha, 14 days after application, read-out: Visual Growth Reduction (%) 14 Days After Application, TRZAS

Structure (SMILES)	pest or weed control at 140 g/ha
COC(=O)c1nc(-c2ccc3ncoc3c2)ccc1Cl [F262, Methyl 6-(benzo[d]oxazol-6-yl)-3-chloropicolinate]	0 to 29%
COc1nc(C(F)(F)F)ccc1-c1nc(C(=O)O)c(Cl)cc1F [F347, 5-Chloro-3-fluoro-2′-methoxy-6′-(trifluoromethyl)-[2,3′-bipyridine]-6-carboxylic acid]	75 to 84%
COC(=O)c1nc(-c2cc(C)c(C(F)(F)F)cc2F)ccc1Cl [F361, Methyl 3-chloro-6-(2-fluoro-5-methyl-4-(trifluoromethyl)phenyl)picolinate]	0 to 29%

Same assay, conditions: post-emergence, 336 h, blackgrass (Alopecurus myosuroides), 14 Days After Application, 140 g ai/ha, read-out: Visual Growth Reduction (%) ALOMY

Structure (SMILES)	pest or weed control at 140 g/ha
COC(=O)c1nc(-c2ccc3ncoc3c2)ccc1Cl [F262, Methyl 6-(benzo[d]oxazol-6-yl)-3-chloropicolinate]	0 to 29%
COc1nc(C(F)(F)F)ccc1-c1nc(C(=O)O)c(Cl)cc1F [F347, 5-Chloro-3-fluoro-2′-methoxy-6′-(trifluoromethyl)-[2,3′-bipyridine]-6-carboxylic acid]	60 to 74%
COC(=O)c1nc(-c2cc(C)c(C(F)(F)F)cc2F)ccc1Cl [F361, Methyl 3-chloro-6-(2-fluoro-5-methyl-4-(trifluoromethyl)phenyl)picolinate]	0 to 29%

Same assay, conditions: post-emergence, 336 h, canada thistle (Cirsium arvense), 14 Days After Application, 140 g ai/ha, read-out: Visual Growth Reduction (%) CIRAR

Structure (SMILES)	pest or weed control at 140 g/ha
COC(=O)c1nc(-c2ccc3ncoc3c2)ccc1Cl [F262, Methyl 6-(benzo[d]oxazol-6-yl)-3-chloropicolinate]	0 to 29%
COc1nc(C(F)(F)F)ccc1-c1nc(C(=O)O)c(Cl)cc1F [F347, 5-Chloro-3-fluoro-2′-methoxy-6′-(trifluoromethyl)-[2,3′-bipyridine]-6-carboxylic acid]	85 to 94%
COC(=O)c1nc(-c2cc(C)c(C(F)(F)F)cc2F)ccc1Cl [F361, Methyl 3-chloro-6-(2-fluoro-5-methyl-4-(trifluoromethyl)phenyl)picolinate]	0 to 29%

Same assay, conditions: post-emergence, 336 h, crabgrass (Digitaria sanguinalis), 14 Days After Application, 140 g ai/ha, read-out: Visual Growth Reduction (%) DIGSA

Structure (SMILES)	pest or weed control at 140 g/ha
COC(=O)c1nc(-c2ccc3ncoc3c2)ccc1Cl [F262, Methyl 6-(benzo[d]oxazol-6-yl)-3-chloropicolinate]	0 to 29%
COc1nc(C(F)(F)F)ccc1-c1nc(C(=O)O)c(Cl)cc1F [F347, 5-Chloro-3-fluoro-2′-methoxy-6′-(trifluoromethyl)-[2,3′-bipyridine]-6-carboxylic acid]	95 to 100%
COC(=O)c1nc(-c2cc(C)c(C(F)(F)F)cc2F)ccc1Cl [F361, Methyl 3-chloro-6-(2-fluoro-5-methyl-4-(trifluoromethyl)phenyl)picolinate]	0 to 29%

Same assay, conditions: post-emergence, 336 h, lambsquarters (Chenopodium album), 14 Days After Application, 140 g ai/ha, read-out: Visual Growth Reduction (%) CHEAL

Structure (SMILES)	pest or weed control at 140 g/ha
COC(=O)c1nc(-c2ccc3ncoc3c2)ccc1Cl [F262, Methyl 6-(benzo[d]oxazol-6-yl)-3-chloropicolinate]	30 to 44%
COc1nc(C(F)(F)F)ccc1-c1nc(C(=O)O)c(Cl)cc1F [F347, 5-Chloro-3-fluoro-2′-methoxy-6′-(trifluoromethyl)-[2,3′-bipyridine]-6-carboxylic acid]	95 to 100%
COC(=O)c1nc(-c2cc(C)c(C(F)(F)F)cc2F)ccc1Cl [F361, Methyl 3-chloro-6-(2-fluoro-5-methyl-4-(trifluoromethyl)phenyl)picolinate]	85 to 94%

Same assay, conditions: post-emergence, 336 h, redroot pigweed (Amaranthus retroflexus), 14 Days After Application, 140 g ai/ha, read-out: Visual Growth Reduction (%) AMARE

Structure (SMILES)	pest or weed control at 140 g/ha
COC(=O)c1nc(-c2ccc3ncoc3c2)ccc1Cl [F262, Methyl 6-(benzo[d]oxazol-6-yl)-3-chloropicolinate]	0 to 29%
COc1nc(C(F)(F)F)ccc1-c1nc(C(=O)O)c(Cl)cc1F [F347, 5-Chloro-3-fluoro-2′-methoxy-6′-(trifluoromethyl)-[2,3′-bipyridine]-6-carboxylic acid]	95 to 100%
COC(=O)c1nc(-c2cc(C)c(C(F)(F)F)cc2F)ccc1Cl [F361, Methyl 3-chloro-6-(2-fluoro-5-methyl-4-(trifluoromethyl)phenyl)picolinate]	45 to 59%

Same assay, conditions: post-emergence, 336 h, wild oat (Avena fatua), 14 Days After Application, 140 g ai/ha, read-out: Visual Growth Reduction (%) AVEFA

Structure (SMILES)	pest or weed control at 140 g/ha
COC(=O)c1nc(-c2ccc3ncoc3c2)ccc1Cl [F262, Methyl 6-(benzo[d]oxazol-6-yl)-3-chloropicolinate]	0 to 29%
COc1nc(C(F)(F)F)ccc1-c1nc(C(=O)O)c(Cl)cc1F [F347, 5-Chloro-3-fluoro-2′-methoxy-6′-(trifluoromethyl)-[2,3′-bipyridine]-6-carboxylic acid]	60 to 74%
COC(=O)c1nc(-c2cc(C)c(C(F)(F)F)cc2F)ccc1Cl [F361, Methyl 3-chloro-6-(2-fluoro-5-methyl-4-(trifluoromethyl)phenyl)picolinate]	0 to 29%

Same assay, conditions: post-emergence, 336 h, yellow nutsedge (Cyperus esculentus), 14 Days After Application, 140 g ai/ha, read-out: Visual Growth Reduction (%) CYPES

Structure (SMILES)	pest or weed control at 140 g/ha
COC(=O)c1nc(-c2ccc3ncoc3c2)ccc1Cl [F262, Methyl 6-(benzo[d]oxazol-6-yl)-3-chloropicolinate]	0 to 29%
COc1nc(C(F)(F)F)ccc1-c1nc(C(=O)O)c(Cl)cc1F [F347, 5-Chloro-3-fluoro-2′-methoxy-6′-(trifluoromethyl)-[2,3′-bipyridine]-6-carboxylic acid]	0 to 29%
COC(=O)c1nc(-c2cc(C)c(C(F)(F)F)cc2F)ccc1Cl [F361, Methyl 3-chloro-6-(2-fluoro-5-methyl-4-(trifluoromethyl)phenyl)picolinate]	0 to 29%
